Consider 17 molecules from patent US20150065494A1, “AMINOSTYRYLBENZOFURAN DERIVATIVES AS INHIBITORS AGAINST BETA-AMYLOID FIBRIL FORMATION, AND PHARMACEUTICAL COMPOSITION COMPRISING SAME” (KOREA INSTITUTE OF SCIENCE AND TECHNOLOGY, priority 2012, published 2015).

Counter-ions that a name gives are not always drawn.

This assay has as its target T1, beta-amyloid 42 (Aβ42) (Homo sapiens, UniProt P05067).
T1 construct: Beta-amyloid 42 (Aβ42) was dissolved in dimethylsulfoxide (DMSO) to form a 250 mM Aβ42 stock solution
Briefly: Inhibitory effect on the formation of beta-amyloid fibrils in vitro (ThT fluorescence assay). It is filed as biochemical. The conditions noted are these: for inhibition at 10 µM / % Inhibition (10 μM): 10 μM compound, 25 μM Aβ42, ThT fluorescence; for Aβ42 % inhibition compared with comparative compound curcumin: 10 μM. The method, then: Beta-amyloid 42 (Aβ42) was dissolved in dimethylsulfoxide (DMSO) to form a […] Aβ42 stock solution. In addition, ThT (thioflavin T) was dissolved in distilled water to obtain a concentration of 1 mM and subsequently diluted with 50 mM glycin buffer (pH 8.5) to yield a 5 μM ThT stock solution. 45 μL of PBS (phosphate buffer saline, pH 7.4) was added to each of a 96-well fluorescence microplate (white, F-bottom). 5 μL of the 250 μM Aβ42 stock solution was added to each well. The final concentration of each compound obtained in Examples was in a range of 10 to 0.001 μM by adding 2 μL of a solution, which was prepared by dissolving the subject compounds obtained in Examples in DMSO, to each well. At this time, the final concentration of Aβ42 in each well was 25 μM. The plate was then incubated for 1 hr at room temperature, and 150 μL of the 5 μM ThT stock solution was added to each well.
The fluorescence intensity of each well was determined with the multi-label fluorescence counter (LS-55 Luminescence spectrometer: Perkin Elmer) at an excitation wavelength of 450 nm (excitation slit width: 10 nm) and an emission wavelength of 482 nm (emission slit width: 10 nm), while adjusting counting time to 1 second. The control group was prepared by adding PBS solution, Aβ42 and DMSO, without adding the inventive compound prepared above. A percent inhibition on the formation of beta-amyloid fibrils was calculated in accordance with the following equation, and IC50 was calculated by using GraphPad Prism version 4.03 Program.
% Inhibition=[1−(C−D)/(A−B)]×100
A (control group)=fluorescence intensity in a group treated with PBS solution, Aβ42 and DMSO
B (blank)=fluorescence intensity in a group treated with PBS solution and DMSO
C (experimental group)=fluorescence intensity in a group treated with PBS solution, Aβ42, the inventive compound and DMSO
D (compensation value to the experimental group) =fluorescence intensity in a group treated with PBS solution, the inventive compound and DMSO

T1 sequence (P05067 672-713 limits assumed): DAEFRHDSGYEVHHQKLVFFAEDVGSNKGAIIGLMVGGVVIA

With `CN(C)c1ccc(/C=C/c2cc3ccc(OCC4CCCCN4C)cc3o2)cc1` (stereo not shown) [Example 31, (E)-6-(1-methyl-2-piperidinylmethoxy)-2-(4-dimethylaminostyryl)benzofuran hydrochloride], the inhibition at 10 µM was below 50%. As to `CN(C)c1ccc(/C=C/c2cc3ccc(OCCCN4CCSCC4)cc3o2)cc1.Cl` [Example 34, (E)-6-(3-(4-thiomorpholinopropoxy))-2-(4-dimethylaminostyryl)benzofuran hydrochloride], the “% Inhibition (10 μM)” value is on record as “* (* (<50%))”. Turning to `CN(C)c1ccc(/C=C/c2cc3ccc(OCCCN4CCOCC4)cc3o2)cc1.Cl` [Example 25, (E)-6-(3-(4-morpholinopropoxy))-2-(4-dimethylaminostyryl)benzofuran hydrochloride], the “Aβ42 % inhibition compared with comparative compound curcumin” value is on record as “equal to or greater than that of the comparative compound, curcumin” and the “% Inhibition (10 μM)” value is on record as “*** (*** (70%≦))”. `CN(C)c1ccc(/C=C/c2cc3ccc(OCCCc4ccccn4)cc3o2)cc1` [Example 37, (E)-6-(3-(2-pyridinyl)propoxy)-2-(4-dimethylaminostyryl)benzofuran hydrochloride] returned an inhibition at 10 µM below 50%. As for `CN(C)c1ccc(/C=C/c2cc3ccc(OCCCN4CCS(=O)(=O)CC4)cc3o2)cc1.Cl` [Example 35, (E)-6-(3-(thiomorpholine-1,1-dioxide)propoxy)-2-(4-dimethylaminostyryl)benzofuran hydrochloride], the “% Inhibition (10 μM)” value is “* (* (<50%))”. Same read-out and setting: to `CN(C)c1ccc(/C=C/c2cc3ccc(OCCN4CCCCC4)cc3o2)cc1.Cl` [Example 29] belongs “* (* (<50%))”. With `COc1cc(/C=C/C(=O)CC(=O)/C=C/c2ccc(O)c(OC)c2)ccc1O` [Curcumin, curcumin, reference compound], the inhibition at 10 µM was at least 70%. On to `CN(C)c1ccc(/C=C/c2cc3ccc(OCCCN4CCCCC4)cc3o2)cc1` [Example 11, (E)-6-(3-(1-piperidinyl)propoxy)-2-(4-dimethylaminostyryl)benzofuran], for which the inhibition at 10 µM was below 50%. Same read-out and setting: to `CN(C)c1ccc(/C=C/c2cc3ccc(OCCN4CCOC4)cc3o2)cc1` [Example 21, (E)-6-(2-(3-oxazolidinyl)ethoxy)-2-(4-dimethylaminostyryl)benzofuran hydrochloride] belongs 50 to 70%.

`C[C@@H]1CN(CCCOc2ccc3cc(/C=C/c4ccc(N(C)C)cc4)oc3c2)C[C@H](C)O1` [Example 28, (E)-6-(3-((2S,6R)-2,6-dimethylmorpholino)propoxy)-2-(4-dimethylaminostyryl)benzofuran hydrochloride] returned an inhibition at 10 µM below 50%. The same measure, in the same setting: for `CCN(CC)CCCOc1ccc2cc(/C=C/c3ccc(N(C)C)cc3)oc2c1` [Example 24, (E)-6-(3-diethylaminopropoxy)-2-(4-dimethylaminostyryl)benzofuran hydrochloride] the value was 50 to 70%.

With `CN(C)c1ccc(/C=C/c2cc3ccc(OCCN4CCOCC4)cc3o2)cc1.Cl` [Example 27, (E)-6-(2-(4-morpholinoethoxy))-2-(4-dimethylaminostyryl)benzofuran hydrochloride], the “% Inhibition (10 μM)” value is reported as “** (** (50% ≦ × < 70%))”.

Take `CN1CCN(CCCOc2ccc3cc(/C=C/c4ccc(N(C)C)cc4)oc3c2)CC1` [Example 33, (E)-6-(3-(4-methyl-1-piperazinyl)propoxy)-2-(4-dimethylaminostyryl)benzofuran hydrochloride]: the inhibition at 10 µM was below 50%. The same measure, in the same setting: to `CN(C)c1ccc(/C=C/c2cc3ccc(OCCCc4cccnc4)cc3o2)cc1` [Example 38, (E)-6-(3-(3-pyridinyl)propoxy)-2-(4-dimethylaminostyryl)benzofuran hydrochloride] belongs below 50%. `CN(C)c1ccc(/C=C/c2cc3ccc(OCCCc4ccncc4)cc3o2)cc1` [Example 17, (E)-6-(3-(4-pyridinyl)propoxy)-2-(4-dimethylaminostyryl)benzofuran] yielded an inhibition at 10 µM below 50%.

`CN1CCCC(COc2ccc3cc(/C=C/c4ccc(N(C)C)cc4)oc3c2)C1` (stereo not shown) [Example 32, (E)-6-(1-methyl-3-piperidinylmethoxy)-2-(4-dimethylaminostyryl)benzofuran hydrochloride] yielded an inhibition at 10 µM below 50%.

Consider `COc1ccc2cc(/C=C/c3ccc(N(C)CCF)cc3)oc2c1` [Example 20, (E)-6-(methoxy)-2-(4,4′-methyl(2-fluoroethyl)aminostyryl)benzofuran], for which the “Aβ42 % inhibition compared with comparative compound curcumin” value was “equal to or greater than that of the comparative compound, curcumin” and the inhibition at 10 µM was at least 70%.
